Measurements as given in paper PMC6072100, “Exploring the links between peptoid antibacterial activity and toxicity” (MedChemComm, 2017).
Square brackets hold non-standard residues; d marks the D form. Peptide text beside a SMILES is read from it. N(isopentyl)Gly = CC(C)CCNCC(=O)O; Nspe = C[C@H](NCC(=O)O)c1ccccc1; NhArg = N=C(N)NCCCCNCC(=O)O; Nlys = NCCCCNCC(=O)O

Tests used:
[1] = test system: Staphylococcus aureus (3R7089 strain Oxford/ATCC9144); assay type: cell-based; conditions: lowest concentration completely inhibiting growth, 37 °C, 16 h; range 2–100 μM
Description: (§1) Escherichia coli K-12 wild-type strain (W3110/ATCC27325, F^–, λ^–, rpoS(Am), rph-1, Inv(rrnD-rrnE)), Pseudomonas aeruginosa PA01 (ATCC 15692) Staphylococcus aureus (3R7089 strain Oxford/ATCC9144) and Staphylococcus epidermidis (laboratory strain from clinical isolate) were selected for bacteriological studies as representative Gram-negative (E. coli and P. aeruginosa) and Gram-positive (S. aureus and S. epidermidis) species. Bacterial cultures were prepared by streaking bacterial strains onto LB agar plates with an inoculation loop and incubated overnight at 37 °C. A single colony was selected and placed in 5 mL of Iso-sensitest broth (Oxoid, ThermoScientific) and incubated with shaking for 16–18 h at 37 °C to provide liquid cultures for testing.
(§2) MIC values were obtained according to the protocol described by J. M. Andrews et al.[58] and were conducted in 96-well plates (Sarstedt). Bacteria were grown from overnight cultures in Iso-sensitest broth to an A650nm of 0.07 equivalent to a 0.5 MacFarland standard (240 μM BaCl2 in 0.18 M H2SO4). This culture was diluted ten-fold with Iso-sensitest broth before use. Peptoids were initially dissolved in DMSO (5 mM) and diluted further in Iso-sensitest broth to achieve a concentration range of 4–200 μM using 2-fold serial dilutions. 50 μl of inoculum and 50 μl of peptoid solution were added to each test well (final concentration range of 2–100 μM). Experiments were performed in triplicate. A positive control for bacterial growth contained only the inoculum and Iso-sensitest broth. Other controls contained the inoculum and serial dilutions of ampicillin (from 250 μg mL^–1 to 2 μg mL^–1), serial dilutions of DMSO and the inoculum to confirm no inhibitory effect on bacterial growth, and Iso-sensitest broth alone as a sterile control. […] Quantitative data was attained from absorbance values using a Biotek Synergy H4 plate reader.
(§3) Antibacterial MIC determination
as §1, with “(W3110 / ATCC27325, F-, λ-,” for “(W3110/ATCC27325, F^–, λ^–,”, “Oxford / ATCC9144)” for “Oxford/ATCC9144)”, “°C.” for “°C. A single colony was selected and placed in 5 mL of Iso-sensitest broth (Oxoid, ThermoScientific) and incubated with shaking for 16–18 h at 37 °C to provide liquid cultures for testing.”
(§4) A single colony was selected and placed in 5 mL of Iso-sensitest broth (Oxoid, ThermoScientific) and incubated with shaking for 16-18 h at 37 °C to provide liquid […]
(§5) MIC values were obtained according to the protocol described by J. M. Andrews et al.1 and were conducted in 96-well plates (Sarstedt). Bacteria were grown from overnight cultures in Iso-sensitest broth to an A650nm of 0.07 equivalent to a 0.5 MacFarland standard (240 μM BaCl2 in 0.18 M H2SO4). This culture was diluted ten-fold with Iso-sensitest broth before use. Peptoids were initially dissolved in DMSO (5 mM) and diluted further in Iso-sensitest broth to achieve a concentration range of 4 – 200 µM using 2-fold serial dilutions. 50 μl of inoculum and 50 μl of peptoid solution were added to each test well (final concentration range of 2 – 100 µM). Experiments were performed in triplicate. A positive control for bacterial growth contained only the inoculum and Iso-sensitest broth. Other controls contained the inoculum and serial dilutions of ampicillin (from 250 µg/mL to 2 µg/mL), serial dilutions of DMSO and the inoculum to confirm no inhibitory effect on bacterial growth, and Iso-sensitest broth alone as a sterile control. […]
(§6) growth after incubation at 37 °C for 16 h with shaking. Quantitative data was attained from absorbance values using a Biotek Synergy H4 plate reader.

[2] = test system: Escherichia coli K-12 wild-type strain (W3110/ATCC27325); assay type: cell-based; conditions: lowest concentration completely inhibiting growth, 37 °C, 16 h; range 2–100 μM
Description: as §1, §2, §3
as §1, with “(W3110 / ATCC27325, F-, λ-,” for “(W3110/ATCC27325, F^–, λ^–,”, “Oxford / ATCC9144)” for “Oxford/ATCC9144)”, “°C.” for “°C. A single colony was selected and placed in 5 mL of Iso-sensitest broth (Oxoid, ThermoScientific) and incubated with shaking for 16–18 h at 37 °C to provide liquid cultures for testing.”
as §4, §5, §6

[3] = test system: Staphylococcus epidermidis (laboratory strain from clinical isolate); assay type: cell-based; conditions: lowest concentration completely inhibiting growth, 37 °C, 16 h; range 2–100 μM
Description: as §1, §2, §3
as §1, with “(W3110 / ATCC27325, F-, λ-,” for “(W3110/ATCC27325, F^–, λ^–,”, “Oxford / ATCC9144)” for “Oxford/ATCC9144)”, “°C.” for “°C. A single colony was selected and placed in 5 mL of Iso-sensitest broth (Oxoid, ThermoScientific) and incubated with shaking for 16–18 h at 37 °C to provide liquid cultures for testing.”
as §4, §5, §6

[4] = test system: Pseudomonas aeruginosa PA01 (ATCC 15692); assay type: cell-based; conditions: lowest concentration completely inhibiting growth, 37 °C, 16 h; range 2–100 μM
Description: as §1, §2, §3
as §1, with “(W3110 / ATCC27325, F-, λ-,” for “(W3110/ATCC27325, F^–, λ^–,”, “Oxford / ATCC9144)” for “Oxford/ATCC9144)”, “°C.” for “°C. A single colony was selected and placed in 5 mL of Iso-sensitest broth (Oxoid, ThermoScientific) and incubated with shaking for 16–18 h at 37 °C to provide liquid cultures for testing.”
as §4, §5, §6

[5] = Skin cell toxicity assay with HaCaT (alamarBlue); assay type: cell-based, human; conditions: human, HaCaT cells (keratinocytes), ED50 HaCaT
Description: The activity of our peptoid library was assessed against both bacterial and mammalian cells to gain a broader understanding of the factors that lead to effective and selective antimicrobial peptoids. We screened for broad-spectrum antibacterial activity against Gram-negative (Escherichia coli and Pseudomonas aeruginosa) and Gram-positive (Staphylococcus aureus and S. epidermidis) bacteria. The toxicity of the library was also assessed against two mammalian cell lines; HaCaT spontaneously transformed aneuploid keratinocytes were employed to model toxicity against human skin cells and HepG2, a cell line derived from a human liver carcinoma, were used as a study on polarised human hepatocytes. Detailed methods for these assays can be found in the ESI. ^‡ […]
Please note – ED50, the median effective dose, was defined as the dose that kills 50% of cells.
Cytotoxicity analyses were performed in 96-well plates (Costar, Fisher Scientific) using alamarBlue® (Invitrogen) for cell viability detection using a modified protocol as described previously. HepG2 or HaCaT cells were subcultured at 37 °C, 5% CO2 in DMEM high glucose supplemented with heat-inactivated foetal bovine sera (FBS, 10%; Biosera Ltd) and penicillin/streptomycin (P/S, 1%). Cells were counted using a Neubauer Improved Haemocytometer. HepG2 cells were seeded 1 day prior to treatment in 96 well plates at a concentration of 2 × 10^5 cells per mL in 100 μL of medium (2 × 10^4 cells per well). Then cells were pre-incubated with the compounds in triplicate in a dilution series in triplicate from 2–100 μM (5 mM stock solutions in DMSO diluted from 100 μM to 3 μM; untreated cells with DMSO as a negative control) in 50 μl of the media for 1 hour. Afterwards, 40 μL were removed from each well before the addition of 90 μL of the media, followed by incubation for 24 hours at 37 °C, 5% CO2. Then, 10 μL of alamarBlue® (Invitrogen) was added to each well before a 2 hour incubation prior to assessing cell viability using a fluorescent plate reader (Biotek; Ex 560 nm/Em 600 nm). All data were measured in triplicate on a minimum of two occasions to ensure a robust data set was collected. The ED50 values were calculated from the dose response results achieved from the serial dilutions. […]
Cells were counted using a Neubauer Improved
Haemocytometer. […]
µM to 3 µM; untreated cells with DMSO as a negative control) in 50 µl of the media for 1 hour.
Afterwards, 40 µL were removed from each well before the addition of 90 µL of the media, followed by incubation for 24 hours at 37 °C, 5% CO2. Then, 10 µL of alamarBlue® (Invitrogen) was added to each well before a 2 hour incubation prior to assessing cell viability using a fluorescent plate reader (Biotek; Ex 560 nm / Em 600 nm). All data was measured in triplicate on a minimum of two occasions to ensure a robust data set was collected. The ED50 values were calculated from the dose response results achieved from the serial dilutions.
Skin Cell Toxicity assay with HaCaT […]
alamarBlue® (Invitrogen) for cell viability detection. HaCaT cells were subcultured at 37 °C, 5% CO2 in DMEM high glucose supplemented with heat-inactivated foetal bovine sera (FBS, 10%; Biosera Ltd) and penicillin/streptomycin (P/S, 1%). Cells were counted using a Neubauer Improved Haemocytometer. HaCaT cells were seeded in the plates 24 hours prior to treatment in 96 well plates at a concentration of 2x10^5 cells/mL in 100 µL of medium (2x10^4 cells/well).
Empty wells were filled with 100 µL PBS. After 24 hours, cells were incubated with the compounds in a dilution series in triplicate from 2 – 100 µM (5 mM stock solutions in DMSO diluted from 100 µM to 3 µM; Amphotericin B was used as a positive control and untreated cells with DMSO as a negative control) in 50 µL of the media for 1 hour. Afterwards, 40 µl was removed from each well, 90 µL of medium was added to each well and the cells incubated for 24 hours at 37 °C, 5% CO2. 10 µL of alamarBlue® (Invitrogen) was added to each well before […]

SMILES	MIC S. aureus [1]	MIC E. coli [2]	MIC S. epidermidis [3]	MIC P. aeruginosa [4]	CC50 at 24 h [5]
C[C@@H](c1ccccc1)N(CC(N)=O)C(=O)CN(C(=O)CN(CCCCNC(=N)N)C(=O)CN(C(=O)CN(C(=O)CN(CCCCNC(=N)N)C(=O)CN(C(=O)CN(C(=O)CNCCCCNC(=N)N)[C@@H](C)c1ccccc1)[C@@H](C)c1ccccc1)[C@@H](C)c1ccccc1)[C@@H](C)c1ccccc1)[C@@H](C)c1ccccc1 [Peptoid 35, (NhArgNspeNspe)3] (H-[NhArg][Nspe][Nspe][NhArg][Nspe][Nspe][NhArg][Nspe][Nspe]-NH2; N-terminus assumed)	2 µM	6 µM	2 µM	50 µM	–
N=C(N)NCCCCNCC(=O)N(CC(=O)N(CC(=O)N(CCCCNC(=N)N)CC(=O)N(CC(=O)N(CC(=O)N(CCCCNC(=N)N)CC(=O)N(CC(=O)N(CC(N)=O)Cc1cccc(F)c1)Cc1cccc(F)c1)Cc1cccc(F)c1)Cc1cccc(F)c1)Cc1cccc(F)c1)Cc1cccc(F)c1 [Peptoid 37, (NhArgNmfbNmfb)3]	2 µM	6 µM	1 µM	25 µM	–
CC(C)CCN(CC(=O)N(CC(N)=O)[C@@H](C)c1ccccc1)C(=O)CN(CCCCNC(=N)N)C(=O)CN(C(=O)CN(CCC(C)C)C(=O)CN(CCCCNC(=N)N)C(=O)CN(C(=O)CN(CCC(C)C)C(=O)CN(CCCCNC(=N)N)C(=O)CN(C(=O)CN(CCC(C)C)C(=O)CNCCCCNC(=N)N)[C@@H](C)c1ccccc1)[C@@H](C)c1ccccc1)[C@@H](C)c1ccccc1 [Peptoid 38, (NhArgNhLeuNspe)4] (H-[NhArg][N(isopentyl)Gly][Nspe][NhArg][N(isopentyl)Gly][Nspe][NhArg][N(isopentyl)Gly][Nspe][NhArg][N(isopentyl)Gly][Nspe]-NH2; N-terminus assumed)	1 µM	13 µM	2 µM	25 µM	–
CC(C)CCN(CC(=O)N(CC(N)=O)[C@@H](C)c1ccccc1)C(=O)CN(CCCCNC(=N)N)C(=O)CN(C(=O)CN(CCC(C)C)C(=O)CN(CCCCNC(=N)N)C(=O)CN(C(=O)CN(CCC(C)C)C(=O)CNCCCCNC(=N)N)[C@@H](C)c1ccccc1)[C@@H](C)c1ccccc1 [Peptoid 39, (NhArgNhLeuNspe)3] (H-[NhArg][N(isopentyl)Gly][Nspe][NhArg][N(isopentyl)Gly][Nspe][NhArg][N(isopentyl)Gly][Nspe]-NH2; N-terminus assumed)	3 µM	–	2 µM	100 µM	–
C[C@@H](c1ccccc1)N(CC(N)=O)C(=O)CN(C(=O)CN(CCCCN)C(=O)CN(C(=O)CN(C(=O)CN(CCCCN)C(=O)CN(C(=O)CN(C(=O)CN(CCCCNC(=N)N)C(=O)CN(C(=O)CN(C(=O)CNCCCCNC(=N)N)[C@@H](C)c1ccccc1)[C@@H](C)c1ccccc1)[C@@H](C)c1ccccc1)[C@@H](C)c1ccccc1)[C@@H](C)c1ccccc1)[C@@H](C)c1ccccc1)[C@@H](C)c1ccccc1 [Peptoid 42, (NhArgNspeNspe)2(NLysNspeNspe)2] (H-[NhArg][Nspe][Nspe][NhArg][Nspe][Nspe][Nlys][Nspe][Nspe][Nlys][Nspe][Nspe]-NH2)	17 µM	17 µM	–	17 µM	15 µM
C[C@@H](c1ccccc1)N(CC(N)=O)C(=O)CN(C(=O)CN(CCCCN)C(=O)CN(C(=O)CN(C(=O)CN(CCCCN)C(=O)CN(C(=O)CN(C(=O)CN(CCCCNC(=N)N)C(=O)CN(C(=O)CN(C(=O)CNCCCCN)[C@@H](C)c1ccccc1)[C@@H](C)c1ccccc1)[C@@H](C)c1ccccc1)[C@@H](C)c1ccccc1)[C@@H](C)c1ccccc1)[C@@H](C)c1ccccc1)[C@@H](C)c1ccccc1 [Peptoid 43, (NLysNspeNspe)(NhArgNspeNspe)(NLysNspeNspe)2] (H-[Nlys][Nspe][Nspe][NhArg][Nspe][Nspe][Nlys][Nspe][Nspe][Nlys][Nspe][Nspe]-NH2)	17 µM	17 µM	–	17 µM	33 µM
C[C@@H](c1ccccc1)N(CC(N)=O)C(=O)CN(C(=O)CN(CCCCN)C(=O)CN(C(=O)CN(C(=O)CN(CCCCNC(=N)N)C(=O)CN(C(=O)CN(C(=O)CN(CCCCN)C(=O)CN(C(=O)CN(C(=O)CNCCCCNC(=N)N)[C@@H](C)c1ccccc1)[C@@H](C)c1ccccc1)[C@@H](C)c1ccccc1)[C@@H](C)c1ccccc1)[C@@H](C)c1ccccc1)[C@@H](C)c1ccccc1)[C@@H](C)c1ccccc1 [Peptoid 44, [(NhArgNspeNspe)(NLysNspeNspe)]2] (H-[NhArg][Nspe][Nspe][Nlys][Nspe][Nspe][NhArg][Nspe][Nspe][Nlys][Nspe][Nspe]-NH2)	17 µM	17 µM	–	67 µM	33 µM
